From patent US20120225093A1, “Abrogating HIV-1 Infection via Drug-Induced Reactivation of Apoptosis” (UNIVERSITY OF MEDICINE AND DENTISTRY OF NEW JERSEY, priority 2010, published 2012)

Experiments:
[1] = system: HIV p24; test: p24 expression from pNL4-3-LucE- molecular clone in 293T cells; type: cell-based, HIV-1; conditions: 293T cell extract; 12 hr post-transfection
Protocol: FIGS. 3A-D are a set of diagrams and photographs showing drug effects on luciferase expression from an HIV-1 molecular clone. A. Comparison of drug effects on luciferase expression from the pNL4-3-LucE- molecular clone in 293T cells. The molecular clone pNL4-3-LucE- and pCMV-Ren were transfected into 293T cells. Drugs were added where indicated at the following concentrations: P2 (30 μM), CPX (30 μM), DEF (250 μM), or DFOX (15 μM). Dual luciferase assays were conducted at 12 hr post-transfection. Firefly (FF) luciferase expression was normalized to Renilla luciferase (Ren) from pCMV-Ren (mean of 2 experiments in duplicate, ±SD). B. Expression in Jurkat cells was assayed essentially as in panel A. C. Firefly and Renilla luciferase RNA expression was analyzed in 293T cells treated as in panel A by RPA using 32P-[UTP] labeled antisense RNA probes corresponding to the C-termini of the FF and Ren luciferase mRNAs. D. Comparison of drug effects on p24 expression from the pNL4-3-LucE- molecular clone in 293T cells. Drugs were added where indicated to the same concentrations as in A. p24 levels were determined in cell extract at 12 hr post-transfection.
p24 core antigen in the supernatant was quantified by ELISA (Retrotek HIV-1 p24™; ZeptoMetrix Corp.; Buffalo, N.Y.). HIV-1 RNA copy number in the supernatant was determined with a PCR-based and FDA-approved assay (Amplicor HIV-1 Monitor™; Roche Diagnostics Corp.; Indianapolis, Ind.). IFN-γ and IL-10 in the supernatant were determined by cytometric bead array (Human Th1/Th2 Cytokine Kit II™; BD Biosciences Pharmingen, San Jose, Calif.).

[2] = system: bioavailable intracellular iron; test: IRE-controlled luciferase reporter in 293T cells; type: cell-based, human; conditions: 12 hr
Protocol: 293T cells (10^5 cells/well of 12-well microplates) were seeded and transfected 20 hr later with a firefly luciferase (Luc)-expressing reporter plasmid and corresponding Renilla luciferase (Ren)-expressing reference plasmid using TransFectin™ (Bio-Rad, Hercules, Calif.). The bioavailable intracellular iron concentration was monitored using plasmids obtained from B. Galy and M. W. Hentze (EMBL, Heidelberg). Plasmid pcFIF-Luc contains the mouse ferritin H 5′-UTR with an iron response element (IRE) controlling Luc; pcFIRo-Ren is a similar construct expressing a mutated non-functional IRE fused to Ren. The activity of the HIV-1 promoter was monitored using the pNL4-3-Luc E molecular clone (Chen et al. (1994) J Virol 68: 654-660.), based on the recombinant infectious proviral clone that contains DNA from HIV isolates NY5 (5′ half) and IIIB (3′ half). This plasmid, obtained from D. Baltimore (Caltech, Pasadena), contains the Luc gene in place of 102 nucleotides from nef and 6 nucleotides from env. pCMV-Ren (Promega, Madison, Wis.) was used as reference for pNL4-3-Luc E. Compounds were added at the time of transfection. Cells were harvested 12 hr later, washed with phosphate-buffered saline, and lysed for the dual luciferase assay (Dual Luciferase™ Reporter Assay System; Promega, Madison, Wis.). Luc data were normalized to the Ren internal controls (Hogue et al. (2009) Retrovirology 6: 90.).
Both CPX and DEF are hydroxypyridinones with vicinally positioned oxygen atoms that mediate bidentate interaction with metal ions, in particular Fe^3+ (FIG. 11A). To evaluate the effect of drugs on the intracellular iron pool and on HIV-1 gene expression, transient expression assays in human 293T cells were exploited. Bioavailable intracellular iron was measured using a construct in which an iron-responsive element (IRE) controls luciferase expression, and HIV-specific transcription was assayed in parallel using an HIV-1 molecular clone that expresses luciferase reporter under the direction of the retroviral promoter. CPX and DEF were compared with the medicinal chelator deferoxamine (DFOX) and with the CPX fragment Agent P2, which consists of the metal-binding 1,2-HOPO domain of CPX but lacks the cyclohexyl moiety (FIG. 11A).

[3] = in vivo, cited from earlier work
[4] = target: T1, eIF5A:DOHH complex (Homo sapiens, UniProt Q9BU89); test: Co-immunoprecipitation of eIF5A with DOHH from 293T cell extracts; type: cell-based; conditions: CPX 30 μM, P2 30 μM, DEF 250 μM, DFOX 10 μM, GC7 10 μM; 24 hr
T1 construct: Endogenous DOHH co-immunoprecipitated with FLAG-eIF5A; expressed in transfected cells; host or cells: 293T cells (DOHH endogenous, FLAG-eIF5A transfected)
T1 sequence (Q9BU89 1-302): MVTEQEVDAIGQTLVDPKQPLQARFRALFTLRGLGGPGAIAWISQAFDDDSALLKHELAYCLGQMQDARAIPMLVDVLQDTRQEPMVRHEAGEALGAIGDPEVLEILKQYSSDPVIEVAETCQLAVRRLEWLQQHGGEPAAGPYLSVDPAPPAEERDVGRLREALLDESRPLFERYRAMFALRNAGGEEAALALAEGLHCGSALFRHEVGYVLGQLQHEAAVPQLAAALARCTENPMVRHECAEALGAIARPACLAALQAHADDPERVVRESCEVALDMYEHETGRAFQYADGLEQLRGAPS
Protocol: (§1) Immunoprecipitation and immunoblotting experiments were carried out as described previously in Hoque et al. Mol Cell Biol 2003, 23:1688-1702.
(§2) eIF5A forms tight complexes with its modifying enzymes. Unmodified eIF5A (lysine-50) immunoprecipitates with DHS and deoxyhypusyl-eIF5A interacts with DOHH in vitro. It was discovered that the deoxyhypusyl-eIF5A:DOHH complex formed in vivo can be detected by immunoprecipitation from cell extracts. Taking advantage of this finding, the effects of the drugs on the enzyme-substrate interaction were tested. FLAG-eIF5A was expressed in 293T cells and complexes that immunoprecipitated with anti-FLAG antibody were immunoblotted and probed with antibodies against DOHH. […] As a further control, the DHS inhibitor GC7 was included in this assay. […] As expected, none of the compounds affected the immunoprecipitation of FLAG-eIF5A (FIG. 2D, middle panel) or the expression of endogenous eIF5A (FIG. 2D, bottom panel). Reciprocally, the interaction between endogenous eIF5A and tagged DOHH was inhibited by CPX and DEF (FIG. 2E, right). Similarly, the interaction of endogenous eIF5A with tagged DHS was inhibited by GC7 (FIG. 2E, left) but resistant to CPX and DEF. It is concluded that CPX and DEF, but not P2 or DFOX, target DOHH and inhibit its interaction with its substrate, deoxyhypusylelF5A.

[5] = target: T2, eIF5A:DHS complex (Homo sapiens, UniProt P49366); test: Co-immunoprecipitation of eIF5A with DHS from 293T cell extracts; type: cell-based; conditions: 293T transfected with FLAG-DHS
T2 construct: expressed in transfected cells; host or cells: 293T cells (FLAG-DHS transfected, eIF5A endogenous)
T2 sequence (P49366 1-369): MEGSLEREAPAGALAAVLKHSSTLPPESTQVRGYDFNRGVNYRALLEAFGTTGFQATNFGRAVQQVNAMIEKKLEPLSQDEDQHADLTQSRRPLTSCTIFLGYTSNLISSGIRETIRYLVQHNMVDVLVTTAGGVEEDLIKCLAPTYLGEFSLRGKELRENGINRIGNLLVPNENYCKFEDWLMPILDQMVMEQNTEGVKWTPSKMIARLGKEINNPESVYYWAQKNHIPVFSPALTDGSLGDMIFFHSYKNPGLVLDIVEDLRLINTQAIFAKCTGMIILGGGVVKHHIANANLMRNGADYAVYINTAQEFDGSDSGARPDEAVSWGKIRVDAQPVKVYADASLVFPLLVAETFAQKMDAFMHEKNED
Protocol: as §1, §2

Row | Compound | inhibition of HIV p24 expression from the molecular clone [1] | reduction of intracellular iron (IRE-dependent luciferase) [2] [%] | peak concentration achievable in patients ([3]; human) [µM] | maximum achievable in human plasma [3] [µM] | association of endogenous DOHH with FLAG-eIF5A [4] | interaction of endogenous eIF5A with tagged DHS [5]
1 | CC(=O)N(O)CCCCCNC(=O)CCC(=O)N(O)CCCCCNC(=O)CCC(=O)N(O)CCCCCN [DFOX, deferoxamine] | no effect | 80 | 15 | 20 | – | –
2 | NCCCCCCCN=C(N)N [GC7] | – | – | – | – | No DOHH was associated with FLAG-eIF5A | inhibited
